Measurements from ChEMBL document CHEMBL1128371, “Synthesis and structure-activity relationships of side-chain-substituted analogs of the allylamine antimycotic terbinafine lacking the central amino function” (1995).
In brackets after ≈: the same amount, converted by molar mass.

Experiments:
Candida parapsilosis = assay: In vitro antifungal activity against Candida parapsilosis 39; type: functional; conditions: Lodderomyces parapsilosis
Sporothrix schenckii = assay: In vitro antifungal activity against Sporothrix schenck ii; type: functional
Candida albicans = assay: In vitro antifungal activity against Candida albicans 124; type: functional
Aspergillus fumigatus = assay: In vitro antifungal activity against Aspergillus fumigatus; type: functional
Microsporum canis = assay: In vitro antifungal activity against Microsporum canis; type: functional
Trichophyton benhamiae = assay: In vitro antifungal activity against Trichophyton mentagrophytes; type: functional, Arthroderma benhamiae

Row | MIC (Candida parapsilosis) [µg/mL] | MIC (Sporothrix schenckii) [µg/mL] | MIC (Candida albicans) [µg/mL] | MIC (Aspergillus fumigatus) [µg/mL] | MIC (Microsporum canis) [µg/mL] | MIC (Trichophyton benhamiae) [µg/mL] | SMILES
1 | > 100 | 12.5 (≈ 42.9 µM) | > 100 | 25 (≈ 85.8 µM) | 3.1 (≈ 10.6 µM) | 1.6 (≈ 5.49 µM) | CC(C/C=C/C#CC(C)(C)N)Cc1cccc2ccccc12 (stereo not given)
2 | 100 | 12.5 | 25 | > 100 | > 100 | > 100 | CC(C/C=C/C#CC(C)(C)[N+](C)(C)C)Cc1cccc2ccccc12 (stereo not given)
3 | > 100 | > 100 | > 100 | > 100 | 100 (≈ 326 µM) | 3.1 (≈ 10.1 µM) | CC(C/C=C/C#CC(C)(C)CO)Cc1cccc2ccccc12 (stereo not given)
4 | > 100 | > 100 | > 100 | > 100 | 3.1 (≈ 10.7 µM) | 0.4 (≈ 1.38 µM) | CC(C/C=C/C#CC(C)(C)C)Cc1cccc2ccccc12 (stereo not given)
5 | > 100 | > 100 | > 100 | > 100 | > 100 | 3.1 (≈ 10.6 µM) | CC(C/C=C/C#CC(C)(C)O)Cc1cccc2ccccc12 (stereo not given)
6 | 6.25 (≈ 19.6 µM) | 3.1 (≈ 9.7 µM) | 50 (≈ 156 µM) | 12.5 (≈ 39.1 µM) | 0.2 (≈ 0.626 µM) | 0.1 (≈ 0.313 µM) | CC(C/C=C/C#CC(C)(C)N(C)C)Cc1cccc2ccccc12 (stereo not given)
7 | > 50 | 25 (≈ 81.8 µM) | > 50 | 50 (≈ 164 µM) | 25 (≈ 81.8 µM) | 6.25 (≈ 20.5 µM) | CC(C/C=C/C#CC(C)(C)CN)Cc1cccc2ccccc12 (stereo not given)
8 | > 100 | > 100 | > 100 | > 100 | 12.5 (≈ 41.5 µM) | 0.4 (≈ 1.33 µM) | CC(C/C=C/C#CC(C)(C)C#N)Cc1cccc2ccccc12 (stereo not given)
9 | > 100 | > 100 | > 100 | > 100 | > 100 | > 100 | CC(C/C=C/C#CC(C)(C)C(=O)O)Cc1cccc2ccccc12 (stereo not given)

Continued, compound first:

Row | SMILES | MIC (Candida parapsilosis) [µg/mL] | MIC (Sporothrix schenckii) [µg/mL] | MIC (Candida albicans) [µg/mL] | MIC (Aspergillus fumigatus) [µg/mL] | MIC (Microsporum canis) [µg/mL] | MIC (Trichophyton benhamiae) [µg/mL]
10 | CN(C/C=C/C#CC(C)(C)C)Cc1cccc2ccccc12 [TERBINAFINE] | 0.8 (≈ 2.75 µM) | 0.4 (≈ 1.37 µM) | 25 (≈ 85.8 µM) | 0.8 (≈ 2.75 µM) | 0.006 (≈ 0.0206 µM) | 0.003 (≈ 0.0103 µM)
11 | COC(=O)C(C)(C)C#C/C=C/CC(C)Cc1cccc2ccccc12 (stereo not given) | > 100 | > 100 | > 100 | > 100 | 0.8 (≈ 2.39 µM) | 0.1 (≈ 0.299 µM)
12 | CNC(=O)C(C)(C)C#C/C=C/CC(C)Cc1cccc2ccccc12 (stereo not given) | > 100 | > 100 | > 100 | > 100 | 1.6 (≈ 4.8 µM) | 0.4 (≈ 1.2 µM)
13 | CC(C/C=C/C#CC(C)(C)C(N)=O)Cc1cccc2ccccc12 (stereo not given) | > 100 | > 100 | > 100 | > 100 | > 100 | > 100
14 | CC(C/C=C/C#CC(C)(C)N(C)c1ccccc1)Cc1cccc2ccccc12 (stereo not given) | > 100 | > 100 | > 100 | > 100 | > 100 | > 100
15 | CC(=O)NC(C)(C)C#C/C=C/CC(C)Cc1cccc2ccccc12 (stereo not given) | > 50 | > 50 | > 50 | > 50 | > 50 | > 50
16 | CN(C/C=C/c1ccccc1)Cc1cccc2ccccc12 [NAFTIFINE] | 1.6 (≈ 5.57 µM) | 1.6 (≈ 5.57 µM) |  | 12.5 (≈ 43.5 µM) | 0.1 (≈ 0.348 µM) | 0.05 (≈ 0.174 µM)
